Results: patent US4879237A, “Use of peptides in control of cell attachment and detachment” (La Jolla Cancer Research Foundation, priority 1985, dated 1989)

System: NRK cells
Assay: Toxicity by trypan blue exclusion and replating of detached cells
Assay type: cell-based, rat
Protocol: The activities of the crude and high performance liquid chromatrography (HPLC)-purified GRGDSP peptide were similar. […] To study the correlation of detaching capacity with the cell attachment-promoting and attachment-inhibiting effects established previously (Pierschbacher and Ruoslahti, 1984a; 1984b), each of the following listed peptides was tested for its ability to detach cells: […]

N=C(N)NCCC[C@H](NC(=O)CN)C(=O)NCC(=O)N[C@@H](CC(=O)O)C(=O)N[C@@H](CO)C(=O)N1CCC[C@H]1C(=O)O [GRGDSP, GLY-ARG-GLY-ASP-SER-PRO]
replating of aggregates washed free of the peptide (NRK aggregates): attached to the dish
cell death by trypan blue exclusion (detached NRK cells): no cell death could be detected
